Like-named read-outs stand apart in the source and are kept apart here.
Columns and labels:
[1] = system: HIF-2α transcriptional activity; assay: Hypoxia-responsive element-driven luciferase (HRE-Luc) screen; assay type: cell-based, human; conditions: Homo sapiens, 786-0, 24 h, 786-0 ccRCC cells stably expressing HRE-Luc; 24 h treatment; range of IC50 values
Procedure: (§1) Screens for inhibitory activity of compounds described herein were performed using 786-0 ccRCC cells that stably express HRE-Luc: 5 copies of the hypoxia-responsive element (HRE) fused to the pGL3 luciferase reporter (Promega Corp, Madison WI). 786-0 cells are pVHL deficient and thus constitutively express HIF-2α independently of cellular oxygen tension. Since 786-0 cells lack HIF-1α, HRE-driven luciferase activity is primarily HIF-2α driven, and has been previously validated. Cells were maintained at log phase growth in […] (DMEM) with 10% FBS in a humidified incubator at 37° C. with 5% CO2. For screening assays, cells were seeded at a density of 4,000 cells in 50 μl of complete media/well in quadruplicate wells/point in a 96-well plate. After 24 h, 50 μl of a 2× concentration of test compound was added to each well. Compounds were diluted from a 5-10 mM stock in DMSO and final concentrations of DMSO in each well in controls and treated wells were kept constant at ≤0.6% DMSO. After 24 h treatment, luciferase activity was measured using the Steady-Glo Luciferase assay system (Promega Corp) according to the manufacturer's protocol. Cell viability was measured in quadruplicate parallel wells using resazurin as recommended by the manufacturer (R&D systems, Minneapolis, MN). Data for luciferase and resazurin were normalized to DMSO treated controls (defining 100%) and wells containing assay reagent but no cells (defining 0%) and graphed using the log inhibitor versus normalized response option in Graphpad Prism 9.3.1 software. Representative data determined using Steady-Glo luciferase and resazurin are shown in FIGS. 1A and 1B respectively, with error bars showing SD. Filled diamonds, empty squares and empty triangles indicate treatment with 3, 8 and 22 respectively with results for HRE-Luc shown in FIG. 1A.

[2] = molecular target: T1, ISCA2 (Homo sapiens, UniProt Q86U28); assay: Thermal shift assay with recombinant ISCA2 (SYPRO Orange); assay type: binding
T1 construct: His6 (N); made in house; host or cells: E. coli Rosetta (DE3)
T1 sequence (Q86U28 9-154): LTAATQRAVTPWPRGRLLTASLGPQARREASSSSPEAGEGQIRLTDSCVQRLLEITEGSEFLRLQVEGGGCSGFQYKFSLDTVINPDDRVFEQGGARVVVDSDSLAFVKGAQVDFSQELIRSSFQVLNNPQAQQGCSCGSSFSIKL
Procedure: Thermal shift assays were performed by monitoring the change in protein melting temperature (Tm) in the absence or presence of test compounds, using the hydrophobic protein binding dye, SYPRO Orange (S6650, Thermo Fisher Scientific), measured using the LightCycler 480 (Roche Life Sciences, Indianapolis, IN) according to the manufacturer's protocol. Recombinant ISCA2 was produced by expressing amino acid residues 9-154 of ISCA2 (ISCA2 lacking its mitochondrial localization sequence) in the pET28 vector containing an N-terminal His6 tag in Rosetta (DE3) competent cells (Novagen, Millipore Sigma). ISCA2 production was induced by treating ISCA2 transformed log phase cells with 0.25 mM IPTG for 4 hours at 18° C. ISCA2 was purified using Ni^2+ affinity purification according to standard protocols and eluted in 50 mM Tris-C1 pH7.4, 150 mM NaCl, 5 mM DTT. Thermal shift assays were performed in 384-well plates using 1 μl of a 10× concentration of SYPRO Orange, 8 μl of ISCA2 (4 μg protein) and 1 μl of 1-2 mM stock of test compound per well. The LightCycler was used according to the following setup: LightCycler 480 Instrument Temperature Setup: First target of 20° C., with a Hold of 15 seconds; second target of 95° C., with Acquisition Mode of Continuous, and 10 acquisitions per degree c.; and third target of 20° C., with a Hold of 15 seconds. Tms were determined using Roche Protein Melting Analysis Software. Representative data are shown in FIGS. 6 and 7 using compound 1 and 26HCL at 200 and 100 µM final concentration respectively. […] These findings are supported by studies showing that re-expression of VHL (which increases ISCA2) and overexpression of ISCA2 itself, promotes the resistance of cells to the compounds (shown in FIG. 8).

[3] = system: HIF-1α and HIF-2α; assay: Western blots for HIF-1α and HIF-2α in ccRCC cells; assay type: cell-based, human; conditions: 786-0 or RCC10 ccRCC cells, 24h, relative to GAPDH
Procedure: (§2) Western blots were performed to determine the effects of the compounds on levels of HIF-2α and other relevant proteins, whereas qPCR was performed to determine the effects of compounds on transcript levels of HIF target genes. 786-0 or RCC10 cells were plated at 1×10E5 cells/well in 2 ml DMEM with 10% FBS/well in 6-well tissue culture plates. Cells were allowed to adhere overnight in a humidified incubator at 37° C. with 5% CO2, after which the appropriate concentrations of compounds in DMSO were added. DMSO concentrations were kept constant in all wells. After 24 h exposure to the compounds, cells were lysed and subjected to western blotting according to standard protocols. Antibodies for HIF-1α and HIF-2α and GAPDH were purchased from Cell Signaling Technology (Danvers, MA), whereas antibodies to IRP2 and pVHL were from Santa Cruz Biotechnology (Dallas, TX), and GPX4 antibody was from R&D Systems, Inc (Minneapolis, MN). Representative data in FIG. 2 show a dose-dependent effect of compounds in decreasing HIF-1/2α. Compounds also impact cellular iron sensing given by increased IRP2, which taken together indicate that cells sense decreased amounts of available iron, which triggers the iron starvation response initiated by IRP2 stabilization. Representative data shown in FIG. 3D show a dose dependent effect of the compounds on GPX4, which may indicate decreased resistance to ferroptosis. […] The data also show increased expression of ISCA2 with pVHL re-expression.

[4] = system: IRP2 and GPX4; assay: Western blots for cellular iron-sensing machinery (IRP2, GPX4); assay type: cell-based, human; conditions: 786-0 or RCC10 ccRCC cells, 24h, relative to GAPDH
Procedure: as §2

[5] = system: 786-0 cells; assay: Resazurin cell viability assay, with or without DFO and other inhibitors; assay type: cell-based, human; conditions: for IC50: Homo sapiens, 24 h, resazurin
Procedure: as §1
In view of the increased cellular iron concentrations induced by the compounds described herein, the involvement of iron in mediating cell death was determined. Cell viability assays were performed as described in Example 2 using resazurin as a cell viability readout and performed in the absence or presence of 100 μM of the iron chelator, DFO (D9533, MilliporeSigma, St Louis, MO). […] Viability IC50 values are shown in brackets.

[6] = system: 786-0 ccRCC cells; assay: ICP-MS of cellular iron, zinc and copper; assay type: cell-based, human; conditions: 786-0 cells, 24h
Procedure: These studies were performed to determine the content of iron and other transition metals in cells after exposure the compounds described herein. 786-0 cells were seeded at 1.5 million cells/flask in T75 cm^2 flasks in DMEM+10% FBS, and allowed to adhere overnight. Cells were then treated with indicated concentrations of compounds in DMSO or DMSO alone (vehicle) for a further 24 h, after which cells were detached by trypsinization, counted, washed twice in phosphate-buffered saline (PBS) and pelleted. Experiments were performed using three replicate T75 cm^2 flasks per condition. A 5:1 mixture of nitric acid (OPTIMA Grade, 70%, Fisher Scientific) and ultrapure hydrogen peroxide (ULTREX II, 30%, Fisher Scientific) was added to cell pellets. This mixture was allowed to digest overnight, heated until dry, and resuspended in 2% nitric acid for analysis using an Agilent 7900 ICP-MS (Agilent Technologies, Santa Clara, CA). Calibration standard solutions for determination of Fe were prepared from Agilent multi-element calibration standard-2A. An Agilent Environmental Calibration Standard was used as an independent control. PBS-only control digestions were used to measure background. Metal readings were normalized to cell number. Data obtained from these studies for three replicate readings (with SEM) are shown in FIG. 3, which show an increase in cellular iron (Fe) content after treatment with indicated compounds.

[7] = Bioavailability studies; assay type: in vivo; conditions: Swiss albino mice, at a 100 mg/kg dose
[8] = system: HIF-2α Iron-Responsive Element (IRE); assay: HIF-2α IRE-Luc reporter assay; assay type: cell-based, human; conditions: 786-0 cells stably expressing HIF-2α IRE-Luc, 24h
Procedure: as §1, with “Compounds were diluted from a 5-10 mM stock in DMSO and final concentrations of DMSO in each well in controls and treated wells were kept constant at ≤0.6% DMSO.” left out, “Data for luciferase and resazurin were normalized to DMSO treated controls (defining 100%) and wells containing assay reagent but no cells (defining 0%) and graphed using the log inhibitor versus normalized response option in Graphpad Prism 9.3.1 software.” left out, “Filled diamonds, empty squares and empty triangles indicate treatment with 3, 8 and 22 respectively with results for HRE-Luc shown in FIG. 1A.” left out

[9] = system: 786-0 cells; assay: TBARS assay of lipid peroxidation (MDA); assay type: cell-based, human; conditions: 48h treatment
Procedure: Malondialdehyde (MDA) is an end product of lipid peroxidation products and can be used to indicate lipid peroxidation, which is a hallmark of ferroptosis. MDA adducts were quantitated in cells and tumor tissue using the TBARS-TCA Method kit (Cat 700870, Cayman Chemicals, Ann Arbour Michigan) according to the manufacturer's protocol. Briefly, 786-0 cells were seeded at 1.75×10E6 cells in T75 cm^2 flasks, allowed to adhere overnight in a humidified incubator at 37° C. with 5% CO2, then treated with test compounds for 48 h, RSL3 (as positive control for 6h) or DMSO control (volume of DMSO kept constant for all flasks). Cells were detached by trypsinization, pelleted by centrifugation, washed in PBS twice, resuspended in 200 μL PBS, then sonicated for 3 minutes in a sonicating water bath. Representative data showing effects of 26HCL or 62TFA in comparison to RSL3, a classical ferroptosis inducer, is shown in FIG. 5. For MDA quantitation in tumor chunks, 20-50 mg of tumor tissue was homogenized in 200-500 μL of PBS, then sonicated for 5 minutes in a sonicating water bath. The cell or tumor lysates were subjected to the colorimetric detection methods described in manufacturer's protocol. MDA concentration of cells was determined in comparison to a standard curve of MDA stock solution provided by the manufacturer. Data was plotted using Prism GraphPad 9.3.1 Software. […]

[10] = system: RENCA syngeneic tumors; assay: RENCA syngeneic tumor model, immunohistochemistry of tumors; assay type: in vivo; conditions: Balb/c mice, once daily oral dosing, 14 days
Procedure: A similar study was performed using RENCA cells, which are derived from a renal tumor that arose spontaneously in a male Balb/c mouse. RENCA cells were purchased from ATCC and 2 million cells were implanted into the flanks of Balb/c mice. Once tumors attained an average size of approximately 75-100 mm^3, mice were stratified into two groups and animals treated with either vehicle or 70 mg/kg 26HCL once daily PO. Mouse tumor volumes were measured three times a week until tumors reached approximately 3000 mm^3, or mice required euthanasia. […] FIG. 10B through 10D show western blot quantitation and MDA quantitation by TBARs assay, as performed for the 786-0 xenografts.
Similar studies were performed using 786-0 and RENCA tumor models treated with 62TFA. […] Immunohistochemistry was performed using standard techniques using CD8 (CST98941) and CD31 (CST77699) purchased from Cell Signaling Technologies.

[11] = system: RCC4 or 786-0 cells±pVHL re-expression; assay: Cell viability with pVHL re-expression; assay type: cell-based, human; conditions: 48h

| Structure (SMILES) | IC50 [1] [µM] | Tm of ISCA2 in compound-treated wells ([2]; 200 μM compound, control wells 53.21±0.36) [°C] | change in melting temperature of ISCA2 (in words) ([2]; compound 1 and 26HCL at 200 and 100 μM final concentration respectively) | effect on HIF-1α and HIF-2α protein (Western blot) [3] | effect on IRP2 protein (Western blot) [4] | effect of DFO co-treatment on compound-mediated loss of cell viability ([5]; DFO 100 μM, FIG. 4B) | cellular iron (Fe), zinc (Zn) and copper (Cu) content [6] | IC50 ([5]; compound alone, read-out: cell viability IC50) [µM] | IC50 ([5]; with DFO 100 μM, read-out: cell viability IC50 in the presence of DFO) [µM] | half-life [7] [h] | Bioavailability F ([7]; oral) [%] | effect on IRE-luciferase reporter activity normalized to resazurin [8] | lipid peroxidation (MDA-TBA adducts) [9] | CD8 cytotoxic T-cell infiltration (immunohistochemistry of tumors) [10] | angiogenesis (CD31 immunohistochemistry of tumors) [10] | effect of pVHL re-expression on cell viability response to compound [11] |
| --- | --- | --- | --- | --- | --- | --- | --- | --- | --- | --- | --- | --- | --- | --- | --- | --- |
| COc1cccc2sc(Nc3nnc(-c4ccc(F)cc4)o3)nc12 [Compound 1, 5-(4-fluorophenyl)-N-(4-methoxybenzo[d]thiazol-2-yl)-1,3,4-oxadiazol-2-amine] | < 10 | 55.63±0.26 | significant change in melting temperature of ISCA2 | decreases HIF-1α and HIF-2α | increases IRP2 |  |  |  |  |  |  |  |  |  |  |  |
| COc1nccc2[nH]c(Nc3nnc(-c4ccc(F)cc4)o3)nc12 [Compound 3, 5-(4-Fluorophenyl)-N-(4-methoxy-1H-imidazo[4,5-c]pyridin-2-yl)-1,3,4-oxadiazol-2-amine] | < 10 |  |  | decreases HIF-1α and HIF-2α | increases IRP2 | protective effects of DFO | increases the content of iron, zinc and copper in cells |  |  |  |  |  |  |  |  |  |
| COc1ccc(-c2nnc(Nc3nc4c(OC)nccc4[nH]3)o2)cc1 [Compound 22, N-(4-methoxy-1H-imidazo[4,5-c]73yridine-2-yl)-5-(4-methoxyphenyl)-1,3,4-oxadiazol-2-amine] | < 10 |  |  |  |  |  | increases the content of iron, zinc and copper in cells | 11.4 | 83.6 |  |  |  |  |  |  |  |
| COc1nccc2[nH]c(Nc3nnc([C@H]4CC[C@@H](OC)CC4)o3)nc12 [Compound 62TFA, N-(4-methoxy-1H-imidazo[4,5-c]pyridin-2-yl)-5-((1s,4s)-4-methoxycyclohexyl)-1,3,4-oxadiazol-2-amine] |  |  |  | decreases HIF-1α and HIF-2α | increases IRP2 |  |  |  |  | 7 | 55 | decrease IRE-mediated translation of HIF-2α | induce lipid peroxidation to an extent comparable to the ferroptosis inducer RSL3 | increases CD8-T cell infiltration | markedly decreases angiogenesis | re-expression of pVHL promotes resistance |

Source: patent US20250346588A1, “IMIDAZOPYRIDINE AND OXAZOLOPYRIDINE DERIVATIVES AND ANALOGS THEREOF, METHODS OF PREPARATION THEREOF, METHODS OF HIF-1/2A PATHWAY INHIBITION, AND INDUCTION OF FERROPTOSIS” (KUDA THERAPEUTICS, INC., priority 2022, published 2025)
